Laboratory results published in PubChem BioAssay (NCI).
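1) Cells in 96-well plates. 2) Compound, 48 h, 5 concentrations. 3) Linear interpolation between surrounding doses. 4) Unreached endpoint = highest concentration. GI50 = concentration required for 50% inhibition of growth. TGI marks complete inhibition of growth.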

What was measured:
Assay in all cases: growth of human tumour cells (NCI), 48 h
A549 NSCLC = system: A549 NSCLC
COLO 205 colon = system: COLO 205 colon
KM12 colon = system: KM12 colon
M14 melanoma = system: M14 melanoma
OVCAR-5 ovarian = system: OVCAR-5 ovarian
SK-MEL-5 melanoma = system: SK-MEL-5 melanoma
U251 CNS = system: U251 CNS
UACC-257 melanoma = system: UACC-257 melanoma
HS 578T breast = system: HS 578T breast
MDA-MB-231 breast = system: MDA-MB-231 breast

## O=C([O-])c1ccccc1Nc1ccccc1[O-].[Ni+3].[OH3+].[OH3+].[OH3+]
A549 NSCLC
  GI50: > 100 µM
  TGI: > 100 µM
COLO 205 colon
  GI50: > 100 µM
  TGI: > 100 µM
KM12 colon
  GI50: > 100 µM
  TGI: > 100 µM
M14 melanoma
  GI50: > 100 µM
  TGI: > 100 µM
OVCAR-5 ovarian
  GI50: > 100 µM
  TGI: > 100 µM
SK-MEL-5 melanoma
  GI50: > 100000 nM
  TGI: > 100 µM
U251 CNS
  GI50: > 100 µM
  TGI: > 100 µM
UACC-257 melanoma
  GI50: > 100 µM
  TGI: > 100 µM

## CC/C=C\C/C=C\C[C@H]1C/C=C2/C(=O)C=C[C@H]2C/C=C\CCC(=O)O1
A549 NSCLC
  GI50: 3.96 µM
  TGI: 12.2 µM
COLO 205 colon
  GI50: 3.11 µM
  TGI: 6.71 µM
HS 578T breast
  GI50: 4.85 µM
  TGI: > 14.3 µM
KM12 colon
  GI50: 2.52 µM
  TGI: 5.7 µM
M14 melanoma
  GI50: 4.48 µM
  TGI: > 14.3 µM
MDA-MB-231 breast
  GI50: 4.65 µM
  TGI: > 14.3 µM
OVCAR-5 ovarian
  GI50: 4.13 µM
  TGI: > 14.3 µM
SK-MEL-5 melanoma
  GI50: 2240 nM
  TGI: 4.41 µM
U251 CNS
  GI50: 3.06 µM
  TGI: 9.71 µM

## CC1(C)OC(=O)C(=C2CC(c3ccccc3)c3ccccc32)C(=O)O1 (stereo unspecified)
A549 NSCLC
  TGI: > 100 µM
COLO 205 colon
  TGI: > 100 µM
M14 melanoma
  TGI: > 100 µM
OVCAR-5 ovarian
  TGI: > 100 µM
SK-MEL-5 melanoma
  TGI: > 100 µM
U251 CNS
  TGI: > 100 µM
UACC-257 melanoma
  TGI: > 100 µM

## Cc1cc2c(c(N)c1C)C(=O)c1ccccc1C2=O
A549 NSCLC
  TGI: > 100 µM
COLO 205 colon
  TGI: > 100 µM
KM12 colon
  TGI: > 100 µM
M14 melanoma
  TGI: > 100 µM
OVCAR-5 ovarian
  TGI: > 100 µM
SK-MEL-5 melanoma
  TGI: > 100 µM
U251 CNS
  TGI: 96.6 µM
UACC-257 melanoma
  TGI: > 100 µM

## CCC/C(=N\NC(=O)c1cc2ccccc2cc1O)C(CC)C(=O)CCC(=O)N(Cc1ccccc1)Cc1ccccc1 (stereo unspecified)
A549 NSCLC
  TGI: > 100 µM
COLO 205 colon
  TGI: 69.5 µM
KM12 colon
  TGI: > 100 µM
M14 melanoma
  TGI: > 100 µM
OVCAR-5 ovarian
  TGI: > 100 µM
SK-MEL-5 melanoma
  TGI: 60.9 µM
U251 CNS
  TGI: > 100 µM
UACC-257 melanoma
  TGI: > 100 µM

## COc1ccc(CNc2nc(NCc3ccc(OC)cc3)c3n[nH]c(C(C)C)c3n2)cc1
A549 NSCLC
  GI50: 7.25 µM
  TGI: > 100 µM
HS 578T breast
  GI50: 2.97 µM
  TGI: 26 µM
KM12 colon
  GI50: 4.29 µM
  TGI: > 100 µM
M14 melanoma
  GI50: 2.28 µM
  TGI: 5 µM
MDA-MB-231 breast
  GI50: 4.67 µM
  TGI: 21.8 µM
OVCAR-5 ovarian
  GI50: 8.65 µM
  TGI: 56.6 µM
SK-MEL-5 melanoma
  GI50: 1570 nM
  TGI: 3.01 µM
U251 CNS
  GI50: 4.22 µM
  TGI: 21.1 µM
UACC-257 melanoma
  GI50: 16.4 µM
  TGI: 30.8 µM

## ClC[Si]12OCCN(CCO1)CCO2
A549 NSCLC
  TGI: > 100 µM
COLO 205 colon
  TGI: > 100 µM
KM12 colon
  TGI: > 100 µM
OVCAR-5 ovarian
  TGI: > 100 µM
SK-MEL-5 melanoma
  TGI: > 100 µM
U251 CNS
  TGI: > 100 µM
UACC-257 melanoma
  TGI: > 100 µM

## O=C(O)C1OC(Oc2cc(O)c3c(=O)cc(-c4ccc(O)cc4)oc3c2)C(O)C(O)C1O (stereo unspecified)
A549 NSCLC
  TGI: > 100 µM
COLO 205 colon
  TGI: > 100 µM
KM12 colon
  TGI: > 100 µM
M14 melanoma
  TGI: > 100 µM
OVCAR-5 ovarian
  TGI: > 100 µM
SK-MEL-5 melanoma
  TGI: > 100 µM
U251 CNS
  TGI: > 100 µM
UACC-257 melanoma
  TGI: > 100 µM

## CC1=C(c2cc(C(=O)Nc3nccs3)nc(NC#N)n2)Sc2ccccc2N1
A549 NSCLC
  TGI: > 100 µM
COLO 205 colon
  TGI: > 100 µM
KM12 colon
  TGI: > 100 µM
M14 melanoma
  TGI: > 100 µM
OVCAR-5 ovarian
  TGI: > 100 µM
SK-MEL-5 melanoma
  TGI: > 100 µM
U251 CNS
  TGI: > 100 µM
UACC-257 melanoma
  TGI: > 100 µM

## COc1ccc(C#CCC(OC2OC(CO)C(O)C(O)C2O)C(O)c2ccc(OC)c(OC)c2)cc1OC (stereo unspecified)
A549 NSCLC
  TGI: > 100 µM
COLO 205 colon
  TGI: > 100 µM
KM12 colon
  TGI: > 100 µM
M14 melanoma
  TGI: > 100 µM
OVCAR-5 ovarian
  TGI: > 100 µM
SK-MEL-5 melanoma
  TGI: > 100 µM
U251 CNS
  TGI: > 100 µM
UACC-257 melanoma
  TGI: > 100 µM
